What was measured:
[1] = tested on: T1, Discoidin domain-containing receptor 2 (Homo sapiens), Q16832 [N456S]; test: Selectivity interaction (LanthaScreen Eu Kinase Binding Assay) EUB0001632a DDR2; details: at 10 µM
T1 sequence (whole entry): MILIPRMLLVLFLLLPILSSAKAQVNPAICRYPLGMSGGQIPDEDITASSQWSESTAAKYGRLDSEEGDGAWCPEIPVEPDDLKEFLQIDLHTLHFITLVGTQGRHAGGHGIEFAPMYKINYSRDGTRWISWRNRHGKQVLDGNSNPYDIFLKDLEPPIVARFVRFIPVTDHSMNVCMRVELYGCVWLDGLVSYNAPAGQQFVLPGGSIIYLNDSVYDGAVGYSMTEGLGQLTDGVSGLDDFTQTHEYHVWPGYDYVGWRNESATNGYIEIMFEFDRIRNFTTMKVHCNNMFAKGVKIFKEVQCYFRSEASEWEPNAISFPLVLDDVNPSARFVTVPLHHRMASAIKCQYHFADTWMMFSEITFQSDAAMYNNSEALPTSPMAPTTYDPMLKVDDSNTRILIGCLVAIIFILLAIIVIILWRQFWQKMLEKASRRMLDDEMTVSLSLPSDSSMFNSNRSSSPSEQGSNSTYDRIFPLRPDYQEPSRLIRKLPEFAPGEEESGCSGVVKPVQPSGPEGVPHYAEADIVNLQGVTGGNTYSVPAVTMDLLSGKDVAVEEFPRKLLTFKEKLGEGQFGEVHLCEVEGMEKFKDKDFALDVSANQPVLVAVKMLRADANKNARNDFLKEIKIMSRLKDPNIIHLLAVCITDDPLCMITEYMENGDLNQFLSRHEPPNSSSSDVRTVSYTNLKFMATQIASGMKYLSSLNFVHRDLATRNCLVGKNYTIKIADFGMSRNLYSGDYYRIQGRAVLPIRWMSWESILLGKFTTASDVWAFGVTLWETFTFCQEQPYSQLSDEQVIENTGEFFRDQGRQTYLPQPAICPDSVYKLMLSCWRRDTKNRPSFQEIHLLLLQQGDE

[2] = biological target: Wee1-like protein kinase (Homo sapiens) (UniProt P30291); test: Selectivity interaction (KinomeScan (DiscoverX)) EUB0000607a WEE1; details: at 10 µM
Wee1-like protein kinase (Homo sapiens), sequence (P30291 whole entry, looked up): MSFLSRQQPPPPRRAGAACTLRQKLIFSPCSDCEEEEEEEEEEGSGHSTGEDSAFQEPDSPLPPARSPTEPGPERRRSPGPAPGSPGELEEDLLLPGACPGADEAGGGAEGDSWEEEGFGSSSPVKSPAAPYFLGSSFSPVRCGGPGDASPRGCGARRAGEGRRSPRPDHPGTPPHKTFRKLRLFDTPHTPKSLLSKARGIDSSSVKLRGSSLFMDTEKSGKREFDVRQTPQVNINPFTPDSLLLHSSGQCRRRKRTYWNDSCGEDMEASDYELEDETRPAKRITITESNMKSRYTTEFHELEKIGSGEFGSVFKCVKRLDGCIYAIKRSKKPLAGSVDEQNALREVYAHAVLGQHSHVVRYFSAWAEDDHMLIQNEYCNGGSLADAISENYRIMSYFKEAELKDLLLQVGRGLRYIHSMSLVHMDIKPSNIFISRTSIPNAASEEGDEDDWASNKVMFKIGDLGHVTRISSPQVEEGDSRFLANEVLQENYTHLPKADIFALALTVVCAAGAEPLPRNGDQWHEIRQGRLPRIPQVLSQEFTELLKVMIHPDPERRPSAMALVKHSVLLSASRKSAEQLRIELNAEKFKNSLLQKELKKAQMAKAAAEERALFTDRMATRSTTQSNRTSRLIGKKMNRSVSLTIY

[3] = biological target: Vascular endothelial growth factor receptor 3 (Homo sapiens, UniProt P35916); test: Selectivity interaction (KinomeScan (DiscoverX)) EUB0000595a FLT4; details: at 10 µM
Vascular endothelial growth factor receptor 3, sequence (P35916 whole entry): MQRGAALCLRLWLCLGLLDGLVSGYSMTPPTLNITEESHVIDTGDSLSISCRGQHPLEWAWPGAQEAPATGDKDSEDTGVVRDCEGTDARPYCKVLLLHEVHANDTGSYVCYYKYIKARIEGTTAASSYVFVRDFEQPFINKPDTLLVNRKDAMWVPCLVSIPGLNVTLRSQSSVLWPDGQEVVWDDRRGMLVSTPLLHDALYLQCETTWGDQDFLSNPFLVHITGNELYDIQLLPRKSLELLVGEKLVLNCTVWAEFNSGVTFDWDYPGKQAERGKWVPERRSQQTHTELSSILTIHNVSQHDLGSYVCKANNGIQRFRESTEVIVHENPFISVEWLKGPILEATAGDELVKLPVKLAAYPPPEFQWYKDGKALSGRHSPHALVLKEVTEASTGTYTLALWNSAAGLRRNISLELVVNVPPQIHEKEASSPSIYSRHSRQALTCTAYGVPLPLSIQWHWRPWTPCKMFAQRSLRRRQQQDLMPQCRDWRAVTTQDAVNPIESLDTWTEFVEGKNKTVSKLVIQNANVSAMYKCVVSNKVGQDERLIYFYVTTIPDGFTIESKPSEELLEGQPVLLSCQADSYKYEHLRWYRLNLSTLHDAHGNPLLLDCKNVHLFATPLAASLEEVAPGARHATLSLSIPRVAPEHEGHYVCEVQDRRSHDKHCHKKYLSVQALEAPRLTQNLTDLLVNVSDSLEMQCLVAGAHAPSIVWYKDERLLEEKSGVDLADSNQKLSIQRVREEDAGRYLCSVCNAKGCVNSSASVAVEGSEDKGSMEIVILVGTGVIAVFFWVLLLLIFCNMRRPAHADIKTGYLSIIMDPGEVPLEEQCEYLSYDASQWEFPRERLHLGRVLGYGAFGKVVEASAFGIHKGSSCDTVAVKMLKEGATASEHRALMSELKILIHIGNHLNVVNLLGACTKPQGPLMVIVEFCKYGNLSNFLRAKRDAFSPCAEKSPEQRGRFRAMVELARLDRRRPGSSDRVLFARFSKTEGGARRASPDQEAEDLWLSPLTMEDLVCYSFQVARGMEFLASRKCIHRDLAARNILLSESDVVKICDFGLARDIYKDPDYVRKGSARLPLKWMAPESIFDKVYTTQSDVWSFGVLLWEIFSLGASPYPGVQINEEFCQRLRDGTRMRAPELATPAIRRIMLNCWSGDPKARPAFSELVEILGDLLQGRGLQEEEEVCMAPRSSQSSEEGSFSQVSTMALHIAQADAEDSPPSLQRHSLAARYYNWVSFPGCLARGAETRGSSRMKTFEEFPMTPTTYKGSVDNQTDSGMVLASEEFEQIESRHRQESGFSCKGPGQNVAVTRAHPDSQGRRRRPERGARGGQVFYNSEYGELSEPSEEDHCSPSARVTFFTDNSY

[4] = biological target: T2, Serine/threonine-protein kinase ULK2 (Homo sapiens) (UniProt Q8IYT8); test: Selectivity interaction (KinomeScan (DiscoverX)) EUB0000595a ULK2; details: at 10 µM
T2 sequence (whole entry): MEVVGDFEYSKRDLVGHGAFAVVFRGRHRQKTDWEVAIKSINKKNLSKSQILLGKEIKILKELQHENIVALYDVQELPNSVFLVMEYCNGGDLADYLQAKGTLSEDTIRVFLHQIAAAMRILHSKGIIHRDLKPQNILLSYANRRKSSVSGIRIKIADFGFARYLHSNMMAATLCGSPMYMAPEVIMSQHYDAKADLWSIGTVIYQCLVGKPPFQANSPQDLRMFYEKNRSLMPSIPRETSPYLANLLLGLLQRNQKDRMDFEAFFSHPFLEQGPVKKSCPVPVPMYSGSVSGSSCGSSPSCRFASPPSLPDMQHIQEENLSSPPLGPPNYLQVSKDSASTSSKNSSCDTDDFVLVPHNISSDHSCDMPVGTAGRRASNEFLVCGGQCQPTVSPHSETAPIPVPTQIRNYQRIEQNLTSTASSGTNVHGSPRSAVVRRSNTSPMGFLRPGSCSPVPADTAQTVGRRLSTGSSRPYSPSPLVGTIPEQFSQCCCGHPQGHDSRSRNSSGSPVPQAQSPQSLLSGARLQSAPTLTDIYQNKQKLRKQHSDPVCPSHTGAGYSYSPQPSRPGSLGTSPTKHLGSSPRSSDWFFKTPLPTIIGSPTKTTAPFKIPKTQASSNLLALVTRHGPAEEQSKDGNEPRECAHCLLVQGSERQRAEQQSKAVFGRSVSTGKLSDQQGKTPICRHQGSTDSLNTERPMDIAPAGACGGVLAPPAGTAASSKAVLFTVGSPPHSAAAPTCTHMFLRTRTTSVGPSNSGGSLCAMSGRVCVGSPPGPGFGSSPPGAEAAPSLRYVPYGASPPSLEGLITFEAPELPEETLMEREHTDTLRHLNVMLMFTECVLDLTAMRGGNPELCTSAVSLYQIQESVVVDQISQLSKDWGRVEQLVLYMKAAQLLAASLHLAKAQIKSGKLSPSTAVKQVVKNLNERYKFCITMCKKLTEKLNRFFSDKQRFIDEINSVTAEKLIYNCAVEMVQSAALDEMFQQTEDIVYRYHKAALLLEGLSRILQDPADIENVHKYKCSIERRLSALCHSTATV

[5] = biological target: Serine/threonine-protein kinase pim-1 (Homo sapiens, UniProt P11309); test: Selectivity interaction (KinomeScan (DiscoverX)) EUB0001049a PIM1; details: at 1 µM
Serine/threonine-protein kinase pim-1, sequence (P11309 whole entry, looked up): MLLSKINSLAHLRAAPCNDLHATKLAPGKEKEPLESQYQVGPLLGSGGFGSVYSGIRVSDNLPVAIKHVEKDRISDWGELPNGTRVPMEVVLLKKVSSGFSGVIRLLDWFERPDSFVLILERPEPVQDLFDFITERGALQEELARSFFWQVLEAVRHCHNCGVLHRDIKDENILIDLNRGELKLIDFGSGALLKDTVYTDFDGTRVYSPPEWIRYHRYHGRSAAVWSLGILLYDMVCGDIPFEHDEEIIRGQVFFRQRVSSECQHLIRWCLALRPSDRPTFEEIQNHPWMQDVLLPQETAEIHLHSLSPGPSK

[6] = biological target: Serine/threonine-protein kinase MRCK beta (Homo sapiens) (UniProt Q9Y5S2); test: Selectivity interaction (KinomeScan (DiscoverX)) EUB0001079a CDC42BPB; details: at 1 µM
Serine/threonine-protein kinase MRCK beta (Homo sapiens), sequence (Q9Y5S2 whole entry): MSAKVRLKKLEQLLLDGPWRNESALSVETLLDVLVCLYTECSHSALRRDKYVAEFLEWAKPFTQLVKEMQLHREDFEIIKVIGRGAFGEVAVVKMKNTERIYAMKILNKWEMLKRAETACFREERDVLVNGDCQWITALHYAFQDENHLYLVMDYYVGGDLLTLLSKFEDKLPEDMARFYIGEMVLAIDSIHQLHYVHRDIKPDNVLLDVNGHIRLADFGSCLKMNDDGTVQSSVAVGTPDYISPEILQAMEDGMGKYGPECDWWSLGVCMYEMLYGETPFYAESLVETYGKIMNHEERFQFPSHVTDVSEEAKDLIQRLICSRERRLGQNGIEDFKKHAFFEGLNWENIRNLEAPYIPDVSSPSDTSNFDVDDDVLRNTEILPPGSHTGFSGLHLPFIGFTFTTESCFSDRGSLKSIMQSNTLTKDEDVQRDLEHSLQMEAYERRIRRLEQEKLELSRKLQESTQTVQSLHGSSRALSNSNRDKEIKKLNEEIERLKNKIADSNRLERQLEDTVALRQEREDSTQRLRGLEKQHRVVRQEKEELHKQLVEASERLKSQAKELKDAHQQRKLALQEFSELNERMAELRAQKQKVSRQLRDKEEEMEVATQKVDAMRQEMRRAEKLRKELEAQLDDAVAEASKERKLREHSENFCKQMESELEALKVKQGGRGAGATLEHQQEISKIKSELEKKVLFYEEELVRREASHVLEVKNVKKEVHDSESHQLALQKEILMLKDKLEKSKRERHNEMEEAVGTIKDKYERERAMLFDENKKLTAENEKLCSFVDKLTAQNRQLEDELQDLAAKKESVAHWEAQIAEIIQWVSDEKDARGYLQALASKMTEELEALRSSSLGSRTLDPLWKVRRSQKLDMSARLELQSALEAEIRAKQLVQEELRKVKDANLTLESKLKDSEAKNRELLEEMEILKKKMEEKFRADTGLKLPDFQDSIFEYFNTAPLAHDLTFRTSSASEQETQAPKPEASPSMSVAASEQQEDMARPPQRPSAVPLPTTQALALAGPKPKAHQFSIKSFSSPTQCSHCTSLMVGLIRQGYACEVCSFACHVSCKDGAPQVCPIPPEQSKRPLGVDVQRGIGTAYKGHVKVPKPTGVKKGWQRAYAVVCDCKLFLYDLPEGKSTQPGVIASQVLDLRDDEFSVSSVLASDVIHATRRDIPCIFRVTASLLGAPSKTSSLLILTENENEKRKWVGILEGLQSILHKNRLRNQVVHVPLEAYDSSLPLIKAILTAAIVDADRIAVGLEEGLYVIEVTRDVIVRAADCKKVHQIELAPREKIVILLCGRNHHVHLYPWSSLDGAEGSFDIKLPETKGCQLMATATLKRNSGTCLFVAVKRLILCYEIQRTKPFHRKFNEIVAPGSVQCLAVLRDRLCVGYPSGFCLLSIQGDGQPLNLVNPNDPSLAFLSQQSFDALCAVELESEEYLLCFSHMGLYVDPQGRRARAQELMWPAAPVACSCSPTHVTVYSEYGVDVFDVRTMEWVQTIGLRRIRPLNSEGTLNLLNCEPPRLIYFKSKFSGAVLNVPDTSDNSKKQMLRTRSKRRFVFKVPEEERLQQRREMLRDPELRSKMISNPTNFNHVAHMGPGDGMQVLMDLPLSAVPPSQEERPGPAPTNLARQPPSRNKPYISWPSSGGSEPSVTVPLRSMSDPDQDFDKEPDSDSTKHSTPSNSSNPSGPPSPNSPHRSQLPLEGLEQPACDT

[7] = biological target: T3, Calcium/calmodulin-dependent protein kinase type IV (Homo sapiens) (UniProt Q16566); details: at 10 µM
T3 sequence (whole entry): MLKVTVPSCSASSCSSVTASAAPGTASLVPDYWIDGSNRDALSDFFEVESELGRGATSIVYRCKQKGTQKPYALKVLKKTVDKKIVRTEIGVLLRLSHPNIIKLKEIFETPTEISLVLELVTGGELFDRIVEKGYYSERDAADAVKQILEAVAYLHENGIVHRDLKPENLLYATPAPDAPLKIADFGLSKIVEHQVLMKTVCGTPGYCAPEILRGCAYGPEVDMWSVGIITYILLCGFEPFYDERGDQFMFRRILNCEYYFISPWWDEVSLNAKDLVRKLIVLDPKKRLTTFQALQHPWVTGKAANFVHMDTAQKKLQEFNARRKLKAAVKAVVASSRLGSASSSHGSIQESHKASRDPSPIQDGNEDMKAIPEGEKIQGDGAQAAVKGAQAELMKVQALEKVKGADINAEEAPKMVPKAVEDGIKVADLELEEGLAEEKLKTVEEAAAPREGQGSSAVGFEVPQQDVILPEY

`Cn1cc(-n2cnc3c(NCc4nc5cc(Cl)c(Cl)cc5[nH]4)nc(N4CCOCC4)nc32)cn1` was tested, and the % of inhibition [1] was -20.1%.
For `CNC(=O)Nc1ccc(-c2nc(N3CC4CCC(C3)O4)c3cnn(C4CCC5(CC4)OCCO5)c3n2)cc1`, the % of control [2] was 79%.
`COCC(=O)NC/C=C/c1ccc2ncnc(Nc3ccc(Oc4ccc(C)nc4)c(C)c3)c2c1` [CP-724714] was tested, and the % of control [3] was 98% and the % of control [4] was 100%.
With `COc1cc(Nc2nc(C)cc(-c3cnn4nc(OC)ccc34)n2)cc(C(F)(F)F)c1` the % of control [5] was 100%.
`Nc1cnc(N2CCc3cc(S(=O)(=O)Nc4c(F)cc(Cl)cc4F)cc(N4CCCC4=O)c32)nc1` [TP-020n] showed a % of control [6] of 95%.
`Cc1cc([C@@H](C)Nc2ccccc2C(=O)O)c2nc(N3CCOCC3)cc(=O)n2c1` [AZD-6482] gave a % of control [7] of 100%.
